Read-outs that look alike come from different tables or passages of the source.
What was measured:
[1] = molecular target: T1, human mu-opioid receptor (hOPRM1) (Homo sapiens, UniProt P35372); assay: cell-based
T1 construct: expressed in transfected cells
Experimental: The effect of mu-opioid receptor agonists on beta-arrestin recruitment is determined using the PathHunter™ beta-arrestin assay. Briefly, PathHunter™ cell lines expressing human mu-opioid receptor (hOPRM1) are seeded in 384-well microplates at a density of 5,000 cells/well in a total volume of 20 μl, and are allowed to adhere and recover overnight. […] The cells are incubated with the mu-opioid receptor agonist at 37° C. for 90 minutes. The experiment is performed in duplicate.
Microplates are read following signal generation with a PerkinElmer Envision™ instrument for chemiluminescent signal detection.
Percentage activity is calculated using the following formula: % Activity=100%×(mean RLU (relative luminescence unit) of test sample−mean RLU of vehicle control)/(mean MAX RLU control ligand −mean RLU of vehicle control)).

[2] = molecular target: T1, human mu-opioid receptor (hOPRM1); assay: cell-based; remark: listed apart in the source
Experimental: The effect of mu-opioid receptor agonists on the inhibition of cAMP production is determined using the […]. Briefly, cAMP Hunter™ cell lines expressing human mu-opioid receptor (hOPRM1) are seeded in 384-well microplates at a density of 10,000 cells/well in a total volume of 20 μl, and are allowed to adhere and recover overnight. […] The cells are incubated with the mu-opioid receptor agonist in the presence of 20 μM forskolin at 37° C. for 30 minutes. The experiment is performed in duplicate.
Assay signal is generated through incubation with 20 μL cAMP XS+ED/CL lysis cocktail for one hour followed by incubation with 20 μL cAMP XS+EA reagent for three hours at room temperature. Microplates are read following signal generation with a PerkinElmer Envision™ instrument for chemiluminescent signal detection.
Percentage activity is calculated using the following formula: % Activity=100%×(1−(mean RLU of test sample−mean RLU of MAX control)/(mean RLU of vehicle control−mean RLU of MAXcontrol).

[3] = molecular target: delta receptors (Homo sapiens, UniProt P41143); details: relative to mu-opiate receptor binding
Sequence of delta receptors (P41143 whole entry): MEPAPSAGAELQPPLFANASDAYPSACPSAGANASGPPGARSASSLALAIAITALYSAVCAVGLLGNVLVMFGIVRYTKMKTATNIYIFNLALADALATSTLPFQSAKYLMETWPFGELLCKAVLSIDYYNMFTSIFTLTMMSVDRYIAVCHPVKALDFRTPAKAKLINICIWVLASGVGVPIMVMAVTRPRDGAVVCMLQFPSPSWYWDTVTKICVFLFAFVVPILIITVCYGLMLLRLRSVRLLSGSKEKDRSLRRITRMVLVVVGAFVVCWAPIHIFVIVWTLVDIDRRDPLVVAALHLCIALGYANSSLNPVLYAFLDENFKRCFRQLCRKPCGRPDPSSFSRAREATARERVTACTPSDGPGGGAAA

T1 sequence (P35372 whole entry): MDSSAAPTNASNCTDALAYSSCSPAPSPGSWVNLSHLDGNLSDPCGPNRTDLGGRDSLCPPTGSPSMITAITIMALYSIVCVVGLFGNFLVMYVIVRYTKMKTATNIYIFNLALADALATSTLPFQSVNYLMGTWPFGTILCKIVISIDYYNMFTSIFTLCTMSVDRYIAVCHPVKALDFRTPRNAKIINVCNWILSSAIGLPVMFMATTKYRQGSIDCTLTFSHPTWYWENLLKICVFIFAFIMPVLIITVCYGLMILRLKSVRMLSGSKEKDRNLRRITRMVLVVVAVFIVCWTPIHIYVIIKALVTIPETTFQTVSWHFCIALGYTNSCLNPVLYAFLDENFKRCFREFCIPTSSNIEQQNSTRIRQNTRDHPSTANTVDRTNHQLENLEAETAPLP

NC(Cc1ccc(O)cc1)C(=O)NC1CCCCNC(=O)C(Cc2ccccc2)NC(=O)C(Cc2c[nH]c3ccccc23)NC1=O [CYT-1010, H-Tyr-c-[D-Lys-Trp-Phe]]
EC50 ([1]; PathHunter cells expressing hOPRM1, 90 minutes at 37° C., duplicate, read-out: EC50 (nM), beta-arrestin recruitment): 13.1 nM | Max Percent Activity, beta-arrestin recruitment ([1]; normalized to control ligand and vehicle, PathHunter cells expressing hOPRM1): 121.2% | EC50 ([2]; cAMP Hunter cells expressing hOPRM1, 20 μM forskolin, 30 minutes at 37° C., duplicate, read-out: EC50 (nM), inhibition of cAMP production): 0.0053 nM | Max Percent Activity, inhibition of cAMP production ([2]; normalized to control ligand and vehicle, 20 μM forskolin): 98.350%

H-Tyr-Pro-Trp-Phe-NH2 [SEQ ID NO:1]
fold weaker binding to delta receptors [3]: over 4,000 fold

met-enkephalin [reference compound]
Max Percent Activity, beta-arrestin recruitment [1]: 100.1% | Max Percent Activity, inhibition of cAMP production [2]: 102.800%
